Experimental data taken from US5234944A (priority 1986, dated 1993).
Like-named read-outs stand apart in the source and are kept apart here.

Experiments:
[1] = Hypotensive activity on the anaesthetized rat; assay type: in vivo, rat (Sprague Dawley); details: injected into jugular vein
opiated receptor K = target: T1, opiated receptor K (Cavia porcellus, UniProt P41144); assay: Liaison with the opiated receptor K in vitro (displacement of 3H ethylketocyclazocine); assay type: binding; details: guinea-pig cerebella membranes, 3H ethylketocyclazocine 1 nM, Tris pH 7.7, 25° C., 40 minutes
T1 construct: Membrane residue prepared from the cerebella of guinea-pigs; from tissue; host or cells: guinea-pig cerebellum membranes

[2] = assay type: in vivo, rat; details: intravenous, aconitine 5 minutes after
[3] = Measurement of the diuretic activity; assay type: in vivo, rat (Sprague Dawley); details: oral, t1h-t5h
Procedure: 4) Measurement of the diuretic activity
Male rats of Sprague Dawley strain weighing 180 to 200 g were not fed for 17 hours before the test, but received water ad libitum. Groups of 8 animals were set up for each dose tested and the rats received the product under test or its vehicle orally. The urinary volume was measured every hour for the 5 hours following the administration of the product. At the end of this period, the urines were collected and the activity of the product was expressed as a percentage of variation calculated on the urinary volume corresponding to the period t1h -t5h.

[4] = 50% inhibiting concentration (IC50)
[5] = read-out: 50% inhibiting concentration (IC50)

T1 sequence (P41144 whole entry): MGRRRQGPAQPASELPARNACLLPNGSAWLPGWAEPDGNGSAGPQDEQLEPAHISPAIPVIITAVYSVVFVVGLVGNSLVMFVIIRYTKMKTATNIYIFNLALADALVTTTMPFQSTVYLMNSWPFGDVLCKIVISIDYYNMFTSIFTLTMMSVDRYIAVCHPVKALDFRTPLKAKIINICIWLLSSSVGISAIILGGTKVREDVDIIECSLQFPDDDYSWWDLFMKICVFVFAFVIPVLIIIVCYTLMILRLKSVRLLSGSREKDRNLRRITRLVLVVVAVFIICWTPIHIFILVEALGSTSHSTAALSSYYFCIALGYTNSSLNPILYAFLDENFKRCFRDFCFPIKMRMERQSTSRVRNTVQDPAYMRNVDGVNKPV

SMILES	variation of arterial pressure, 5 min. after administration ([1]; dose 1 mg/kg) [%]	variation of arterial pressure, 30 min. after administration ([1]; dose 1 mg/kg) [%]	IC50 (opiated receptor K; [4]) [nM]	further results
CN(C(=O)Cc1ccc(C(F)(F)F)cc1)[C@@H]1c2ccccc2C[C@H]1N1CCCC1 (relative stereo) [Example 5, [Trans (±)]N-[2,3-dihydro-2-(1-pyrrolidinyl)-1H-inden-1-yl]-N-methyl 4-(trifluoromethyl)-benzene-acetamide]	-20	-20	3	variation of arterial pressure, 5 min. after administration ([1]; dose 10 mg/kg): -25%; variation of arterial pressure, 30 min. after administration ([1]; dose 10 mg/kg): -10%; percentage of extension of time of appearance of disturbances of the cardiac rhythm ([2]; dose 10 mg/kg): +15.6%
CN(C)[C@@H]1Cc2ccccc2[C@H]1N(C)C(=O)Cc1ccc(Cl)c(Cl)c1 (relative stereo) [Example 25, [Trans (±)]3,4-dichloro-N-[2,3-dihydro-2-(dimethylamino)-1H-inden-1-yl]-N-methyl-benzene-acetamide]			2.2	
CN(C(=O)Cc1ccc(Cl)c(Cl)c1)[C@H]1[C@H](N2CCCC2)c2ccccc2C12CCOCC2 (relative stereo) [Example 4, [trans (±)]3,4-dichloro-N-[2,2',3,3',5',6'-hexahydro-3-(1-pyrrolidinyl)-spiro (1H-inden-1-,4'-(4H)-pyran]-2-yl]-N-methyl-benzene-acetamide]				variation of arterial pressure, 5 min. after administration ([1]; dose 10 mg/kg): -26%; variation of arterial pressure, 30 min. after administration ([1]; dose 10 mg/kg): -14%
CN(C(=O)Cc1cccc(C(F)(F)F)c1)[C@@H]1c2ccccc2C[C@H]1N1CCCC1 (relative stereo) [Example 6, [Trans (±)]N-[2,3-dihydro-2-(1-pyrrolidinyl)-1H-inden-1-yl]-N-methyl-3-(trifluoromethyl)-benzene-acetamide]			7.5	
CN(C(=O)Cc1ccc(Cl)c(Cl)c1)[C@H]1[C@H](N2CCCC2)c2ccccc2C1(C)C (relative stereo) [Example 29, [Trans (±)]3,4-dichloro-N-[2,3-dihydro-1,1-dimethyl-3-(1-pyrrolidinyl)-1H-inden-2-yl]-N-methyl-benzene-acetamide]			5.6	
CN(C(=O)COc1ccc(Cl)c(Cl)c1)[C@@H]1c2ccccc2C[C@H]1N1CCCC1 (relative stereo) [Example 14, [trans (±)]2-(3,4-dichlorophenoxy)-N-[2,3-dihydro-2-(1-pyrrolidinyl)-1H-inden-1-yl]-N-methyl-acetamide]	-22	-26		percentage of variation of the urinary volume ([3]; dose 5 mg/kg): +68%; IC50 (opiated receptor K; [5]): 3.8 nM
CN(C(=O)Cc1ccc([N+](=O)[O-])cc1)[C@@H]1c2ccccc2C[C@H]1N1CCCC1 (relative stereo) [Example 8, [Trans (±)]N-[2,3-dihydro-2-(1-pyrrolidinyl)-1H-inden-1-yl]-N-methyl-4-nitro-benzene-acetamide]	-25	-27	7.1	percentage of variation of the urinary volume ([3]; dose 2.5 mg/kg): +124%; percentage of variation of the urinary volume ([3]; dose 5 mg/kg): +130%; percentage of extension of time of appearance of disturbances of the cardiac rhythm ([2]; dose 5 mg/kg): +23%
CC(C(=O)N(C)[C@@H]1c2ccccc2C[C@H]1N1CCCC1)c1ccc(Cl)c(Cl)c1 (mixture of isomers) [Example 22, [Trans (±)]3,4-dichloro-N-[2,3-dihydro-2-(1-pyrrolidinyl)-1H-inden-1-yl]-N-α-dimethyl-benzene-acetamide]				IC50 (opiated receptor K; [5]): 7.1 nM
CN(C(=O)Cc1ccc([N+](=O)[O-])cc1)[C@@H]1c2ccccc2C[C@H]1N1CCCC1 (relative stereo) [Example 16, [Trans (±)]N-[2,3-dihydro-2-(1-pyrrolidinyl)-1H-inden-1-yl]-N-methyl-4-nitro-benzene-acetamide (isomer A)]			5	
